Data published in patent US9572862B2, “Methods for promoting lipolysis and oxidation in liver and adipose tissue using catestatin” (The Regents of the University of California, priority 2012, dated 2017).
“Also recorded” adds a separate entry of the source. No end group written: not given here.

What was measured:
[1] = Plasma CST level (ELISA) after CST administration; assay type: in vivo; conditions: WT mice on NCD, CST 5 μg/g BW i.p./day for 12 days
Procedure: (§1) FIG. 1. Plasma parameters of wild-type (WT) and Chga-KO mice treated with saline or CST. (A) Plasma CST from saline or CST (5 μg/g BW, i.p./day) treated WT mice (28 week old) on normal chow (NCD) and high fat diet (60% fat for 16 weeks) as well as from Chga-KO mice (28 week old) on NCD. Body weights (B) and epididymal fat pad size normalized to body weight (C) in 28 week old WT and Chga-KO mice treated with saline or CST for 12 days. Plasma triglyceride (TG) (D), glycerol (E), non-esterified fatty acids (NEFA) (F), and leptin (G) in 28 week old WT and Chga-KO mice after treatment with saline or CST for 12 days. (H) Leptin in adipocyte culture media after treatment with saline or CST.
Adult male (7 month old) WT (31.8±1.2 g) and Chga-KO (39.2±1.5 g) mice in the mixed genetic background (129SvJ×C57BL/6) were studied. Both genotypes were generated from the original founder carrying mixed genotype (50% 129SvJ, 50% C57BL/6) and were maintained by sibling mating. Animals were kept in a 12 hr dark/light cycle and fed standard chow ad libitum. Male C57BL/6 mice, 8 week old, were fed 60% high fat diet (D12492: Research Diets, Inc., New Brunswick) for 16 weeks before using for experiments. […]
Mice were fasted for 12 hr prior to blood draw. […] Media from the explant cultures and mouse serum were analysed for glycerol and NEFA as a measure of lipolysis. […]

[2] = system: Chga-KO mice; test: Chronic CST administration to Chga-KO mice: adiposity, plasma lipids, leptin; assay type: in vivo
Procedure: as §1
FIG. 2. Comparison of epididyaml fat pads between saline or CST-treated Chga-KO mice. Adipose tissue was compared after 12 days of treatment with saline (A) or CST (5 μg/g BW, i.p./day) (B). *indicates epididymal fat pad.
(§2) Adult male (7 month old) WT (31.8±1.2 g) and Chga-KO (39.2±1.5 g) mice in the mixed genetic background (129SvJ×C57BL/6) were studied. Both genotypes were generated from the original founder carrying mixed genotype (50% 129SvJ, 50% C57BL/6) and were maintained by sibling mating. Animals were kept in a 12 hr dark/light cycle and fed standard chow ad libitum. Male C57BL/6 mice, 8 week old, were fed 60% high fat diet (D12492: Research Diets, Inc., New Brunswick) for 16 weeks before using for experiments. Male leptin-deficient (C57BL/6J-Ob/Ob) mice from the Jackson Laboratory were maintained on a standard chow diet. The Institutional Animal Care and Utilization Committee approved all procedures. Chga-KO, DIO and Ob/Ob mice were treated daily with saline or CST (5 μg/g BW, i.p.; 12 days for Chga-KO mice and 16 days for DIO and Ob/Ob mice).
(§3) Mice were fasted for 12 hr prior to blood draw. Triglycerides (TG) and non-esterified fatty acids (NEFA) were assayed using kits from Wako Diagnostics (Richmond, Va.). Glycerol was assayed using a kit from Sigma (St Louis, Mo.). Media from the explant cultures and mouse serum were analysed for glycerol and NEFA as a measure of lipolysis. ELISA kits were used to determine plasma levels of leptin, adiponectin (Millipore, Billerica, Mass.) and CST (Bachem, Torrance, Calif.). For CST assay, plasma samples and reference standards were passed through mini C18 columns and the flow-through fractions were assayed. The same kits were used for measurements in culture media.

[3] = system: primary adipocytes; test: Lipolytic glycerol release from primary adipocytes; assay type: cell-based, mice
Procedure: as §3
Primary adipocytes were isolated from epididymal fat pads essentially as described (43). Adipose tissues from WT and Chga-KO mice were minced in Krebs-Ringer bicarbonate-Hepes (KRBH) buffer, pH 7.4, containing 10 mM bicarbonate, 30 mM Hepes, 200 nM adenosine, 2.5 mM glucose and 1% fatty-acid-free BSA, and digested for 30-40 min with Type I collagenase (10 mg/g tissue; Invitrogen, Carlsbad, Calif.) with gentle swirling in a 37° C. incubator. The digestion mixture was then filtered through a nylon strainer and centrifuged at 400×g for 1 min. The oily layer (released from broken cells) above floating fat cells was skimmed off, and fat cells were recovered from the top and washed three times with warm KRBH.

[4] = system: DIO mice; test: CST administration to DIO mice for 16 days; assay type: in vivo
Procedure: FIG. 7. Effects of CST administration to DIO and Ob/Ob mice on food intake, body weight, adipose tissue weight, and lipolysis. CST (5 μg/g BW, i.p./day) or saline was administered to DIO and Ob/Ob mice for 16 days. Food intake for DIO mice (A) and Ob/Ob mice (B) was measured every other day. Percent changes in final body weight and WAT mass (as % of body weight) were determined for DIO (C) and Ob/Ob (D) mice. Plasma glycerol (E) and NEFA (F) were quantified for DIO and Ob/Ob mice at the end of CST treatment.
as §2, §3

[5] = system: HFD-fed Chga-KO mice; test: Peptide supplementation to HFD-fed Chga-KO mice (insulin sensitivity); assay type: in vivo; conditions: HFD (60%)-fed Chga-KO mice
[6] = system: CST-KO mice; test: Palmitate oxidation and hepatic gene expression in CST-KO mice; assay type: in vivo
Excerpt: FIG. 14. Palmitate oxidation. CST augmented palmitate oxidation in liver (A) and muscle (B) of both NCD- and 60% HFD-fed mice. Hepatic expression of genes involved in fatty acid oxidation such as Cpt1α(C), Acox (D) and Pparα (E). Augmented expression of these genes in Chga-KO mice indicates increased fatty acid oxidation in liver. In contrast, decreased expression in CST-KO mice indicates decreased fatty acid oxidation in liver, which was restored by supplementation with CST. Expression of lipogenic & gluconeogenic genes (F). Increased expression of Srebp1c in Chga-KO mice indicates increased lipogenesis. (G) Decreased expression of gluconeogenic gene Pepck in Chga-KO mice indicates inhibition of gluconeogenesis eventuating in increased sensitivity to insulin. In contrast, augmented expression of Pepck in CST-KO implicates increased gluconeogenesis eventuating in decreased sensitivity to insulin, which is normalized after CST supplementation. Figures in parentheses indicate number of animals.

[7] = system: db/db mice; test: CST treatment of diabetic db/db mice; assay type: in vivo
Excerpt: FIG. 15. […] Figures in parentheses indicate number of animals.

[8] = system: CST-KO mice; test: ITT in insulin resistant CST-KO mice with CST, RI-CST or NSC-177941; assay type: in vivo; conditions: ITT in CST-KO mice
Excerpt: FIG. 16. […] Figures in parentheses indicate number of animals.

[9] = CST 5 μg/g BW i.p./day for 12 days
[10] = CST-KO mice, CST supplementation

Sequence: SSMKLSFRARAYGFRGPGPQL [CST]
- time plasma CST maintained at this level [1]: at least 4 hr
- food intake [2]: did not increase food intake
- body weight [2, 9]: without affecting body weight
- epididymal fat pad size [2, 9]: reduced epididymal fat pad size to WT level
- plasma NEFA level ([2]; CST 12 days): increased
- plasma TG levels ([2]; CST 12 days): decreased plasma TG levels
- plasma glycerol level ([2]; CST 12 days): increased
- plasma leptin ([2]; CST 12 days): lowered plasma leptin to a level below WT
- effect on the lipolytic effect of isoproterenol ([3]; adipocytes, with isoproterenol 10 μM): potentiated
- glycerol release (lipolysis) ([3]; primary adipocytes, substance alone): stimulated glycerol release
- food intake ([4]; CST 5 μg/g BW i.p./day 16 days): did not change
- decrease in adipose tissue mass ([4]; CST 16 days): about 2 g
- plasma concentration of NEFA (lipolysis) ([4]; CST 16 days): increased
- plasma concentration of glycerol (lipolysis) ([4]; CST 16 days): increased
- insulin sensitivity (GTT) [5]: made HFD-fed Chga-KO mice sensitive to insulin
- palmitate oxidation in liver [6, 10]: stimulated; also recorded: augmented
- palmitate oxidation in muscle [6, 10]: stimulated; also recorded: augmented
- hepatic expression of Acox ([6]; liver of CST-KO mice): stimulated expression; also recorded: restored
- hepatic expression of Cpt1α ([6]; liver of CST-KO mice): stimulated expression; also recorded: restored
- hepatic expression of Pepck ([6]; liver of CST-KO mice): suppressed the expression; also recorded: normalized
- hepatic expression of Pparα ([6]; liver of CST-KO mice): stimulated expression; also recorded: restored
- hepatic expression of Srebp1c ([6]; liver of CST-KO mice): stimulated expression
- glucose tolerance (GTT) ([7]; CST 10 μg/g/day for 14 days): improvement in glucose tolerance; also recorded: improved glucose tolerance
- C-peptide level ([7]; CST 14 days): without lowering C-peptide levels; also recorded: No change in C-Peptide level
- C-peptide/Insulin molar ratio ([7]; CST 14 days): increased; also recorded: higher C-Peptide/insulin molar ratio
- plasma insulin level ([7]; CST 14 days (untreated db/db 20-30 nM)): 14 to 18 nM
- persistence of the insulin-sensitizing effect [8]: persisted throughout the experimental period
